Measurements: US20100285959A1, “HERBICIDAL MIXTURES” (priority 2006, published 2010)

Assays:
giant ragweed (AMBTR) = experiment: Test 26 field trial, postemergence; assay type: in vivo, Ambrosia trifida
From the text: (§1) Corn seeds (hybrid ‘Pioneer 31G96’) were planted in mid spring season, 3.8 cm deep in a silt loam soil having 2% organic matter and a pH of 6.6. Plots were 6.1 m long by 3.0 m wide with rows spaced 76 cm apart. Seeds were spaced 15 cm apart within the rows. The field was managed using conventional tillage practices. […] All treatments also included a surfactant. […] Some of the weed species could not be evaluated at every timing. […] Results are the means of the three replicates.

wild oat (AVEFA) = experiment: Test 4 field trial, postemergence; assay type: in vivo, Avena fatua; design: scale not given here
Method: (§2) A field trial was conducted to evaluate the effects of mixtures of Compound 2 with commercial herbicides on spring wheat (TRZAS, Triticum aestivum L.) and several weed species. Wheat seeds (cv. ‘AC Intrepid’) were planted in late spring season, 3.8 cm deep in a loam soil having 2.7% organic matter and a pH of 7. Plots were 6 m long by 2.5 m wide. The field was managed using no-till practices. The plots were arranged in a randomized complete block design with each treatment being replicated four times. Treatments were applied postemergence 25 days after planting using a backpack sprayer delivering a spray volume of 55 L/ha using a pressure of 276 kPa. […] Compound 2 and clodinafop treatments, alone and in combination, also included a surfactant. Weed species present in the experimental plots in sufficient quantity to be evaluated included wild oat (AVEFA, Avena fatua L.), common lambsquarters (CHEAL, Chenopodium album L.), kochia (KCHSC, Kochia scoparia (L.) Schrad.), wild buckwheat (POLCO, Polygonum convolvulus L.), Russian thistle (SASKR, Salsola kali L. ssp. ruthenica (Iljin) Soo), and field pennycress (THLAR, Thlaspi arvense L.). […] Common lambsquarters was evaluated only at 14 days after application. […] Results are the means of the four replicates.

velvetleaf (ABUTH) = experiment: Test 16 greenhouse, post- and preemergence; conditions: 15 DAA
Russian thistle (SASKR) = experiment: Test 4 field trial, postemergence; assay type: in vivo, Salsola kali; design: scale not given here
Method: as §2

kochia (KCHSC) = experiment: Test 24 growth chamber, postemergence; assay type: in vivo, Kochia scoparia; conditions: 17 DAA
Method: (§3) Plants were treated postemergence at the 2-4 leaf growth stage, and each treatment was replicated three times. […] Plants were watered as needed. […] Results for barley and wheat are the means across varieties of the three replicates, and results for the weeds are the means of the three replicates.

common chickweed (STEME) = experiment: Test 24 growth chamber, postemergence; assay type: in vivo, Stellaria media; conditions: 17 DAA
Method: as §3

winter barley (HORVW) = experiment: Test 24 growth chamber, postemergence; assay type: in vivo, Hordeum vulgare; conditions: 17 DAA
Method: as §3

sorghum (SORVU) = experiment: Test 28 greenhouse, postemergence; assay type: in vivo, Sorghum vulgare; conditions: 26 DAA
Method: (§4) A greenhouse test was conducted to evaluate the effects on the plant species corn (ZEAMD, Zea mays ssp. indentata), sorghum (SORVU, Sorghum vulgare L.), dry-seeded rice (ORYSA, Oryza sativa L.), wheat (TRZAW, Triticum aestivum L.), ivyleaf morningglory (IPOHE, Ipomoea hederacea (L.) JACQ.), and barnyardgrass (ECHCG, Echinochloa crus-galli (L.) P. BEAUV.), of mixtures of Compound 2 with isoxadifen-ethyl. Corn, sorghum, rice, wheat, ivyleaf morningglory and barnyardgrass seeds were planted in RediEarth, a commercial potting medium. […] Corn plants were treated postemergence at the V2 growth stage, and sorghum, rice, wheat, ivyleaf morningglory, and barnyardgrass plants were treated postemergence at the 3-leaf stage. […] Each treatment was replicated three times. […] Plants were watered as needed.

[1] = tested on: ivyleaf morningglory (IPOHE); experiment: Test 26 field trial, postemergence; assay type: in vivo, Ipomoea hederacea; design: scale not given here
From the text: as §1

[2] = tested on: ivyleaf morningglory (IPOHE); experiment: Test 28 greenhouse, postemergence; assay type: in vivo, Ipomoea hederacea; conditions: 26 DAA
Method: as §4

oak species (QUESS) = experiment: Test 13 field trial, postemergence, brush weeds; assay type: in vivo, Quercus L. spp.; conditions: 56 DAA; g a.i./ha: Cpd 2 250; Fosamine-ammonium 6700
From the text: Plots were established in non-crop land and were 6.1 m long by 3.0 m wide. […] Treatments were applied postemergence to the brush weeds using a backpack sprayer delivering a spray volume of 468 L/ha using a pressure of 241 kPa. […] All treatments also included a surfactant. […] Results are the means of the three replicates.

wheat (TRZAW) = experiment: Test 28 greenhouse, post- and preemergence; assay type: in vivo, Triticum aestivum; conditions: 26 DAA
Method: as §4

barnyardgrass (ECHCG) = experiment: Test 28 greenhouse, postemergence; assay type: in vivo, Echinochloa crus-galli; conditions: 26 DAA
Method: as §4

wild mustard (SINAR) = experiment: Test 24 growth chamber, postemergence; assay type: in vivo, Sinapis arvensis; conditions: 17 DAA
Method: as §3

[3] = 14 DAA, Cpd 2 30 g a.i./ha alone or with clodinafop 56 or fenoxaprop 90
[4] = 14 DAA, Cpd 2 60 g a.i./ha alone or with clodinafop 56 or fenoxaprop 90
[5] = 35 DAA, Cpd 2 30 g a.i./ha alone or with clodinafop 56 or fenoxaprop 90

Compound: COC(=O)c1nc(C2CC2)nc(N)c1Cl [Compound 2, methyl 6-amino-5-chloro-2-cyclopropyl-4-pyrimidinecarboxylate]
- AMBTR Obs (giant ragweed (AMBTR); 14 DAA, 30 g a.i./ha): 97
- AMBTR Obs (giant ragweed (AMBTR); 28 DAA, 30 g a.i./ha): 100
- AMBTR Obs (giant ragweed (AMBTR); 28 DAA, 45 g a.i./ha): 100
- AMBTR Obs (giant ragweed (AMBTR); 28 DAA, 60 g a.i./ha): 100
- AVEFA Obs (wild oat (AVEFA); [3]): 0
- AVEFA Obs (wild oat (AVEFA); [4]): 0
- AVEFA Obs (wild oat (AVEFA); [5]): 0
- AVEFA Obs (wild oat (AVEFA); 35 DAA, Cpd 2 60 g a.i./ha alone or with clodinafop 56 or fenoxaprop 90): 0
- AVEFA Obs (wild oat (AVEFA); 55 DAA, Cpd 2 30 g a.i./ha alone or with clodinafop 56 or fenoxaprop 90): 0
- AVEFA Obs (wild oat (AVEFA); 55 DAA, Cpd 2 60 g a.i./ha alone or with clodinafop 56 or fenoxaprop 90): 0
- Obs response, scale 0 to 100 (velvetleaf (ABUTH); Postemergence, 15 g a.i./ha): 33
- Obs response, scale 0 to 100 (velvetleaf (ABUTH); Postemergence, 30 g a.i./ha): 38
- Obs response, scale 0 to 100 (velvetleaf (ABUTH); Postemergence, 45 g a.i./ha): 61
- Obs response, scale 0 to 100 (velvetleaf (ABUTH); Preemergence, 15 g a.i./ha): 23
- Obs response, scale 0 to 100 (velvetleaf (ABUTH); Preemergence, 30 g a.i./ha): 38
- Obs response, scale 0 to 100 (velvetleaf (ABUTH); Preemergence, 45 g a.i./ha): 42
- SASKR Obs (Russian thistle (SASKR); [3]): 88
- SASKR Obs (Russian thistle (SASKR); [4]): 91
- SASKR Obs (Russian thistle (SASKR); [5]): 99
- SASKR Obs (Russian thistle (SASKR); 35 DAA, Cpd 2 60 g a.i./ha alone): 95
- KCHSC Obs (scale 0 to 100) (kochia (KCHSC); Cpd 2 4 g a.i./ha): 65
- KCHSC Obs (scale 0 to 100) (kochia (KCHSC); Cpd 2 8 g a.i./ha): 77
- KCHSC Obs (scale 0 to 100) (kochia (KCHSC); Cpd 2 16 g a.i./ha): 88
- STEME Obs (scale 0 to 100) (common chickweed (STEME); Cpd 2 4 g a.i./ha): 47
- STEME Obs (scale 0 to 100) (common chickweed (STEME); Cpd 2 8 g a.i./ha): 63
- STEME Obs (scale 0 to 100) (common chickweed (STEME); Cpd 2 16 g a.i./ha): 67
- HORVW Obs (scale 0 to 100) (winter barley (HORVW); Cpd 2 4 g a.i./ha): 19
- HORVW Obs (scale 0 to 100) (winter barley (HORVW); Cpd 2 8 g a.i./ha): 28
- HORVW Obs (scale 0 to 100) (winter barley (HORVW); Cpd 2 16 g a.i./ha): 37
- SORVU Obs (sorghum (SORVU); Cpd 2 32 g a.i./ha): 73%
- SORVU Obs (sorghum (SORVU); Cpd 2 64 g a.i./ha): 96%
- IPOHE Obs ([1]; 14 DAA, 30 g a.i./ha): 90
- IPOHE Obs ([1]; 14 DAA, 45 g a.i./ha): 67
- IPOHE Obs ([1]; 14 DAA, 60 g a.i./ha): 98
- IPOHE Obs ([1]; 28 DAA, 30 g a.i./ha): 95
- IPOHE Obs ([1]; 28 DAA, 45 g a.i./ha): 99
- IPOHE Obs ([1]; 28 DAA, 60 g a.i./ha): 98
- IPOHE Obs ([1]; 56 DAA, 30 g a.i./ha): 88
- IPOHE Obs ([1]; 56 DAA, 45 g a.i./ha): 96
- IPOHE Obs ([1]; 56 DAA, 60 g a.i./ha): 98
- IPOHE Obs ([2]; Cpd 2 32 g a.i./ha): 100
- IPOHE Obs ([2]; Cpd 2 64 g a.i./ha): 100
- QUESS Obs (oak species (QUESS)): 33
- TRZAW Obs (wheat (TRZAW); postemergence, Cpd 2 32 g a.i./ha): 80%
- TRZAW Obs (wheat (TRZAW); postemergence, Cpd 2 64 g a.i./ha): 90%
- TRZAW Obs (wheat (TRZAW); preemergence, Cpd 2 32 g a.i./ha): 0%
- TRZAW Obs (wheat (TRZAW); preemergence, Cpd 2 64 g a.i./ha): 27%
- ECHCG Obs (barnyardgrass (ECHCG); Cpd 2 32 g a.i./ha): 83
- ECHCG Obs (barnyardgrass (ECHCG); Cpd 2 64 g a.i./ha): 87
- SINAR Obs (scale 0 to 100) (wild mustard (SINAR); Cpd 2 4 g a.i./ha): 62
- SINAR Obs (scale 0 to 100) (wild mustard (SINAR); Cpd 2 8 g a.i./ha): 65
- SINAR Obs (scale 0 to 100) (wild mustard (SINAR); Cpd 2 16 g a.i./ha): 72
